{"source": "patent US20200113872A1", "about": "“Ifetroban Treatment for Systemic Sclerosis” (Cumberland Pharmaceuticals Inc., priority 2016, published 2020)", "origin": "cited, not measured here", "test_system": "pulmonary artery banded mice"}
{"molecule": "CCCCCNC(=O)c1coc([C@H]2[C@@H](Cc3ccccc3CCC(=O)O)[C@@H]3CC[C@H]2O3)n1", "note": "[ifetroban, [1S-(1α,2α,3α,4α)]-2-[[3-[4-[(Pentylamino)carbonyl]-2-oxazolyl]-7-oxabicyclo[2.2.1]hept-2-yl]methyl]-benzenepropanoic acid]", "values": [{"measurement": "right ventricular expression of anti-fibrotic and muscularization genes", "value": "augmented"}, {"measurement": "ratio of the early (E) to late (A) ventricular filling velocities (E/A ratio)", "setting": "one indicator of cardiac efficiency", "value": "increased"}, {"measurement": "expression of genes associated with inflammation", "setting": "right ventricle", "value": "decreased"}, {"measurement": "cardiomyocyte hypertrophy", "setting": "treatment with ifetroban", "value": "reduced"}, {"measurement": "right ventricular fibrosis", "setting": "treatment with ifetroban", "value": "reduced"}]}
